Results on 38 molecules are retold here after patent US11046691B1 (IDEAYA BIOSCIENCES, INC., priority 2018, dated 2021).

Sequence of hMAT2A (P31153 whole entry): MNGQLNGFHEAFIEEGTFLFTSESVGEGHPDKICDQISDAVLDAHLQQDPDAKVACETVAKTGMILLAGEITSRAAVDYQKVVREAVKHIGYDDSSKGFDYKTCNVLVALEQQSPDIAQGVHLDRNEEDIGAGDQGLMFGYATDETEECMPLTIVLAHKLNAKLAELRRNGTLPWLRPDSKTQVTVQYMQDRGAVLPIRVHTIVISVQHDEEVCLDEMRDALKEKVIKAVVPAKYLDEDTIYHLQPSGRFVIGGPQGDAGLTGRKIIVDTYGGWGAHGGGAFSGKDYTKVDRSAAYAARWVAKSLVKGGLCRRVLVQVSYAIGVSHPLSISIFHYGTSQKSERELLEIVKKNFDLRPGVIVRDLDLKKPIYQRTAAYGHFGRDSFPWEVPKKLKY

One experiment addresses hMAT2A (Homo sapiens (Human), UniProt P31153). Nature of the experiment: Phosphate Sensor Fluorescence Assay (MAT2A enzyme inhibition). It is filed as biochemical. The following applies: L-methionine 500 uM, ATP 500 uM, class symbols. As for the experimental part:
The ability of the compound of present disclosure to inhibit MAT2A enzyme was determined using the Malachite Green or Phosphate Sensor Fluorescence Assay described below.
B. Phosphate Sensor Fluorescence Assay
MAT2A enzyme is incubated with a test compound in DMSO or DMSO and its substrates (L-methionine and ATP) in a microtiter plate. The enzymatic reaction is stopped by the addition of Working Phosphate Sensor Mixture. The plate is analyzed for fluorescence at 450 nm.
Assay Buffer: 50 mM Tris, pH 7.5/50 mM KCl/10 mM MgCl2/0.01% Brij-35/1 mM DTT/0.1% BGG/40 nM PNP/6 uM 7-MEG
L-methionine: 500 uM before the addition of Working Phosphate Sensor Mixture
ATP: 500 uM before the addition of Working Phosphate Sensor Mixture
Test compounds or DMSO were added to the appropriate well suing D300e digital dispenser. 5 μl/well of Assay Buffer was added to the wells corresponding to the negative control and 5 μl/well of MAT2A was added to all the wells except for those corresponding to the negative control. After incubating the plate at room temperature for 15 minutes, 5 μl/well of the 1 mM L-methionine/1 mM ATP mixture was added to all wells. The plate was centrifuged at 1000 rpm for 1 minute and then incubated at room temperature for 1 hour. 5 μl of the Working Phosphate Sensor Mixture was added to all wells and the plate was centrifuged at 1000 rpm for 1 minute. The plate was read for fluorescence at 450 nm after exciting at 430 nm.
Percent inhibition was calculated in Chemical and Biological Information System (CBIS), (ChemInnovation Software Inc.). Curves were fitted by CBIS as % inhibition vs. log [compound concentration] using a 4-parameter inhibition model. Fit=(A+((B−A)/(1+((C/x)^D)))) Res=(y−fit)
For orientation: IC50 means the concentration that gives 50% inhibition. `O=c1[nH]c(=O)n(-c2ccccc2)c2cc(C(F)F)ccc12` [Example 166, 7-(difluoromethyl)-1-phenyl-1,3-dihydroquinazoline-2,4-dione] yielded an IC50 of 200 to 500 nM.

Molecule `Nc1nc(=O)n(-c2ccccc2Cl)c2nc(C(F)(F)F)ccc12` [Example 167, 4-amino-1-(2-chlorophenyl)-7-(trifluoro-methyl)pyrido[2,3-d]pyrimidin-2(1H)-one] came in with a half-inhibitory concentration (IC50) of under 200 nM.

`N#Cc1cccc(-n2c(=O)nc(N)c3ccc(C(F)(F)F)nc32)c1` [Example 168, 3-(4-amino-2-oxo-7-(trifluoromethyl)-pyrido[2,3-d]pyrimidin-1(2H)-yl)-benzonitrile] returned an IC50 of under 200 nM.

In turn, `Cc1ccccc1-n1c(=O)nc(N)c2ccc(C(F)(F)F)nc21` [Example 169, 4-amino-1-(2-methylphenyl)-7-(trifluoromethyl)pyrido[2,3-d]pyrimidin-2(1H)-one] returned a half-inhibitory concentration (IC50) of under 200 nM.

`O=c1nc(N2CC[C@@H](O)C2)c2ccc(C(F)(F)F)nc2n1-c1ccccc1` [Example 170, (R)-4-(3-hydroxypyrrolidin-1-yl)-1-phenyl-7-(trifluoromethyl)pyrido[2,3-d]-pyrimidin-2(1H)-one]: the IC50 is under 200 nM.

Consider `O=c1nc(N2CC(O)C2)c2ccc(C(F)(F)F)nc2n1-c1ccccc1` [Example 171, 4-(3-hydroxyazetidin-1-yl)-1-phenyl-7-(trifluoromethyl)pyrido[2,3-d]pyrimidin-2(1H)-one], for which the concentration for half-maximal inhibition (IC50) was under 200 nM.

In the case of `O=c1nc(N2CC[C@H]2CO)c2ccc(Cl)cc2n1-c1ccccc1` [Example 172, (S)-7-chloro-4-(2-(hydroxymethyl)-azetidin-1-yl)-1-phenylquinazolin-2(1H)-one], the IC50 is under 200 nM.

`CNc1nc(=O)n(-c2cccc(C#N)c2C)c2cc(Cl)ccc12` [Example 173, 3-[7-chloro-4-(methylamino)-2-oxo-hydroquinazolinyl]-2-methylbenzene-carbonitrile]: the IC50 is under 200 nM.

`CNC(=O)c1cccc(-n2c(=O)nc(NC)c3ccc(Cl)cc32)c1` [Example 175] yielded an IC50 of under 200 nM.

Consider `O=c1nc(N2CCCC2)c2ccc(C(F)(F)F)nc2n1-c1ccccc1Cl` [Example 176, 1-(2-chlorophenyl)-4-(pyrrolictin-1-yl)-7-(trifluoromethyl)pyrido[2,3-d]pyrimidin-2(1H)-one], for which the IC50 was under 200 nM.

As to `CNc1nc(=O)n(-c2ccccc2Cl)c2nc(C(F)(F)F)ccc12` [Example 178, 1-(2-chlorophenyl)-4-(methylamino)-7-(trifluoromethyl)pyrido[2,3-d]pyrimidin-2(1H)-one], the concentration for half-maximal inhibition (IC50) is under 200 nM.

`CNc1nc(=O)n(-c2cccc(C#N)c2)c2nc(C(F)(F)F)ccc12` [Example 179, 3-[4-(methylamino)-2-oxo-7-(trifluoro-methyl)pyrido[2,3-d]pyrimidin-1(2H)-yl)benzonitrile]: the IC50 is under 200 nM.

In the case of `CNc1nc(=O)n(-c2ccccc2C)c2nc(C(F)(F)F)ccc12` [Example 180, 4-(methylamino)-1-(2-methylphenyl)-7-(trifluoromethyl)pyrido[2,3-d]pyrimidin-2(1H)-one], the half-maximal inhibitory concentration (IC50) is under 200 nM.

`O=c1nc(N2CC[C@H](O)C2)c2ccc(C(F)(F)F)nc2n1-c1ccccc1Cl` [Example 181, (S)-1-(2-chlorophenyl)-4-(3-hydroxy-pyrrolidin-1-yl)-7-(trifluoromethyl)-pyrido[2,3-d]pyrimidin-2(1H)-one]: the half-maximal inhibitory concentration (IC50) is under 200 nM.

In turn, `N#Cc1cccc(-n2c(=O)nc(N3CC[C@H](O)C3)c3ccc(C(F)(F)F)nc32)c1` [Example 182, (S)-3-(4-(3-hydroxypyrrolidin-1-yl)-2-oxo-7-(trifluoromethyl)pyrido[2,3-d]pyrimidin-1(2H)-yl)benzonitrile] yielded an IC50 of under 200 nM.

In turn, `Cc1ccccc1-n1c(=O)nc(N2CC[C@@H](O)C2)c2ccc(C(F)(F)F)nc21` [Example 183, (R)-4-(3-hydroxypyrrolidin-1-yl)-1-(o-tolyl)-7-(trifluoromethyl)pyrido[2,3-d]-pyrimidin-2(1H)-one] yielded an IC50 of under 200 nM.

Molecule `CNc1nc(=O)n(-c2ccccc2)c2nc(C(F)(F)F)ccc12` [Example 184, 4-(methylamino)-1-phenyl-7-(trifluoromethyl)pyrido[2,3-d]-pyrimidin-2(1H)-one] had a half-maximal inhibitory concentration (IC50) of under 200 nM.

Molecule `CNc1nc(=O)n(-c2ccccc2)c2cc(Cl)cc(OCCO)c12` [Example 185, 7-chloro-5-(2-hydroxyethoxy)-4-(methylamino)-1-phenylhydro-quinazolin-2-one] returned an IC50 of under 200 nM.

The molecule `O=c1nc(N2CCC2CO)c2ccc(Cl)cc2n1-c1ccccc1` (centres unmarked) [Example 186, 7-chloro-4-[2-(hydroxymethyl)azetidin-1-yl]-1-phenylhydroquinazolin-2-one] returned an IC50 of under 200 nM.

With `O=c1nc(N2CC[C@@H]2CO)c2ccc(Cl)cc2n1-c1ccccc1` [Example 187, (R)-7-chloro-4-(2-(hydroxymethyl)-azetidin-1-yl)-1-phenylquinazolin-2(1H)-one], the concentration for half-maximal inhibition (IC50) was in the range of 200 to 500 nM.

Consider `CNc1nc(=O)n(-c2nccn2C)c2cc(Cl)ccc12` [Example 188], for which the IC50 is 200 to 500 nM.

On to `CO[C@@H]1CCN(c2nc(=O)n(-c3ccccc3)c3cc(Cl)ccc23)C1` [Example 189, (R)-7-chloro-4-(3-methoxypyrrolidin-1-yl)-1-phenylquinazolin-2(1H)-one], for which the IC50 is under 200 nM.

With `CNc1nc(=O)n(-c2ccccc2)c2cc(Cl)c(C#N)cc12` [Example 190, 7-chloro-4-(methylamino)-2-oxo-1-phenylhydroquinazoline-6-carbonitrile], the IC50 fell in the range of 1000 to 10000 nM.

`CO[C@H]1CCN(c2nc(=O)n(-c3ccccc3)c3cc(Cl)ccc23)C1` [Example 196, (S)-7-chloro-4-(3-methoxypyrrolidin-1-yl)-1-phenylquinazolin-2(1H)-one] had a half-maximal inhibitory concentration (IC50) of under 200 nM.

In the case of `CN(Cc1ccccc1)c1nc(=O)n(-c2ccccc2)c2cc(Cl)ccc12` [Example 197, 7-chloro-4-[methylbenzylamino]-1-phenylhydroquinazolin-2-one], the concentration for half-maximal inhibition (IC50) was under 200 nM.

Regarding `COC(=O)C1CN(c2nc(=O)n(-c3ccccc3)c3cc(Cl)ccc23)C1` [Example 199, methyl 1-(7-chloro-2-oxo-1-phenyl-1,2-dihydroquinazolin-4-yl)azetidine-3-carboxylate], the IC50 is under 200 nM.

In the case of `CS(=O)(=O)Nc1nc(=O)n(-c2ccccc2)c2cc(Cl)ccc12` [Example 200, N-(7-chloro-2-oxo-1-phenyl-1,2-dihydroquinazolin-4-yl)methane-sulfonamide], the IC50 lay within 1000 to 10000 nM.

`NC1CCN(c2nc(=O)n(-c3ccccc3)c3cc(Cl)ccc23)C1` (centres unmarked) [Example 201, 4-(3-aminopyrrolidin-1-yl)-7-chloro-1-phenylquinazolin-2(1H)-one]: the IC50 is under 200 nM.

With `CC(=O)Nc1nc(=O)n(-c2ccccc2)c2cc(Cl)ccc12` [Example 203, N-(7-chloro-2-oxo-1-phenyl-1,2-dihydroquinazolin-4-yl)acetamide], the IC50 lay in the range of 200 to 500 nM.

Consider `CNC(=O)C1CN(c2nc(=O)n(-c3ccccc3)c3cc(Cl)ccc23)C1` [Example 204, 1-(7-chloro-2-oxo-1-phenyl-1,2-dihydroquinazolin-4-yl)-N-methyl-azetidine-3-carboxamide], for which the IC50 is under 200 nM.

As for `CN(CC(F)F)c1nc(=O)n(-c2ccccc2)c2cc(Cl)ccc12` [Example 205, 4-[(2,2-difluoroethyl)methylamino]-7-chloro-1-phenylhydroquinazolin-2-one], the concentration for half-maximal inhibition (IC50) was under 200 nM.

The same experiment, now with this note: L-methionine 500 uM, ATP 500 uM, numeric bound.
As to `O=c1ncc2ccc(Cl)cc2n1-c1ccccc1` [Example 191, 7-chloro-1-phenylhydroquinazolin-2-one], the half-inhibitory concentration (IC50) was over 10000 nM.

The molecule `CNc1nc(=O)n(-c2ccccc2)c2cc(C)cnc12` [Example 192, 7-methyl-4-(methylamino)-1-phenyl-pyrido[3,2-d]pyrimidin-2(1H)-one] yielded an IC50 of over 10000 nM.

Take `Cc1cnc2c(=O)[nH]c(=O)n(-c3ccccc3)c2c1` [Example 193, 7-methyl-1-phenylpyrido[3,2-d]-pyrimidine-2,4(1H,3H)-dione]: the IC50 is over 10000 nM.

For the molecule `O=C(O)[C@@H]1CCCN1c1nc(=O)n(-c2ccccc2)c2cc(Cl)ccc12` [Example 195, (2S)-1-(7-chloro-2-oxo-1-phenylhydro-quinazolin-4-yl)pyrrolidine-2-carboxylic acid], the half-inhibitory concentration (IC50) is over 10000 nM.

In the case of `CNc1nc(=O)n(-c2ccccc2)c2cc(Cl)cc(OC3COC3)c12` [Example 202, 7-chloro-4-(methylamino)-5-oxetan-3-yloxy-1-phenylhydroquinazolin-2-one], the IC50 is over 10000 nM.

In turn, `O=C1CCN1c1nc(=O)n(-c2ccccc2)c2cc(Cl)ccc12` [Example 206, 7-chloro-4-(2-oxoazetidin-1-yl)-1-phenylhydroquinazolin-2-one] showed an IC50 of over 10000 nM.

In turn, `CNc1nc(=O)n(-c2ccccc2)c2cc(Cl)cc(-n3cccn3)c12` [Example 208, 7-chloro-4-(methylamino)-1-phenyl-5-(1H-pyrazol-1-yl)quinazolin-2(1H)-one] displayed an IC50 of over 10000 nM.
